Reference: patent publication US10471043B2, “Compounds and methods of treating bacterial infections” (ULTUPHARMA AB, priority 2015, dated 2019)
Converted amounts (≈) assume the structure as drawn. Read-outs that look alike come from different tables or passages of the source.

Assays:
Type in all cases: cell-based
S. epidermidis = assay: Antimicrobial Susceptibility Test by Broth Microdilution, M07-A9 CLSI; details: Staphylococcus epidermidis
Proteus mirabilis = assay: MIC panel of Gram-negative bacteria (Table 7)
A. baumanii = assay: MIC panel of Gram-negative bacteria (Table 7)

`CCCCCCCCCC1CC(O)=C(C(=O)CCC)C(=O)O1` (stereo not drawn) [Ex. 1, 3-Butyryl-6-nonyl-4-hydroxy-5,6-dihydro-2H-pyran-2-one] was tested, and the MIC (S. epidermidis; MRSE, S. epidermidis TA12, MRSE, Table 6) was 2 µg/mL (≈ 6.44 µM), the MIC (S. epidermidis; S. epidermidis RO7, MSSE, Table 6) was 1 µg/mL (≈ 3.22 µM) and the MIC (S. epidermidis; S. epidermis RO7, Methicillin-sensitive, Table 5) was 1 µg/mL (≈ 3.22 µM). For the same compound, the MIC (S. epidermidis; S. epidermis TA12, Methicillin-resistant, Table 5) was 2 µg/mL (≈ 6.44 µM), the MIC (Proteus mirabilis; EN0445 P. mirabilis ST19 G−) was >64 µg/mL and the MIC (Proteus mirabilis; EN0457 Proteus mirabilis G− PKL 3695, read-out: MIC) was > 64 µg/mL. For the same compound, the MIC (A. baumanii; Acinetobacter baumannii, EN007 A. baumanii WT, ENABLE Primary MIC panel, read-out: MIC) was > 64 µg/mL, the MIC (A. baumanii; EN0016 A. baumanii, ENABLE L2C MIC panel) was >64 µg/mL and the MIC (A. baumanii; EN0017 A. baumanii Efflux mut, ENABLE L2C MIC panel) was >64 µg/mL.
